Test results from PubChem BioAssay AID256 (DTP/NCI, 2004).
Several values for one entry are separate records, joined by “and”; a condition that tells them apart may be missing. Identical values can stand only once. Inconclusive results and toxic doses are left out. How the source made its calls: active means survival T/C of 150% or more; inactive means T/C below 125% in these data.

Tested on: CD2F1 mice, L1210 leukemia ip, survival T/C
Test: NCI In Vivo Anticancer Drug Screen. Data for tumor model L1210 Leukemia (intraperitoneal) in CD2F1 (CDF1) mice
Conditions: higher = longer survival
In short: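 Mice carrying a transplanted tumor received test compound or vehicle alone. The value is the measurement in the treated group divided by that in the vehicle-treated control group.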

[1] = endpoint: mean survival time, dose: 100.0 mg/kg/injection, schedule: Q04DX003 (ip), vehicle: saline with Tween-80
[2] = endpoint: mean survival time, dose: 200.0 mg/kg/injection, schedule: Q04DX003 (ip), vehicle: saline with Tween-80
[3] = endpoint: mean survival time, dose: 400.0 mg/kg/injection, schedule: Q04DX003 (ip), vehicle: saline with Tween-80
[4] = endpoint: mean survival time, dose: 100.0 mg/kg/injection, schedule: Q04DX003 (ip), vehicle: saline
[5] = endpoint: mean survival time, dose: 200.0 mg/kg/injection, schedule: Q04DX003 (ip), vehicle: saline
[6] = endpoint: mean survival time, dose: 50.0 mg/kg/injection, schedule: Q01DX009 (ip), vehicle: saline with Tween-80
[7] = endpoint: mean survival time, dose: 100.0 mg/kg/injection, schedule: Q01DX009 (ip), vehicle: saline with Tween-80
[8] = endpoint: mean survival time, dose: 200.0 mg/kg/injection, schedule: Q01DX009 (ip), vehicle: saline with Tween-80
[9] = endpoint: mean survival time, dose: 400.0 mg/kg/injection, schedule: Q01DX009 (ip), vehicle: saline with Tween-80

Measured: T/C

C=Cc1cc(OC)c2c(c1)c(=O)oc1c2cc(OC)c2c(O)ccc(C3OC(C(C)O)C(O)C3O)c21 (stereo not given)
inactive: endpoint: median survival time, dose: 25.0 mg/kg/injection, schedule: Q01DX009 (ip), vehicle: Klucel (hydroxypropylcellulose) (HPC) 112 % of control | endpoint: median survival time, dose: 36.0 mg/kg/injection, schedule: Q01DX009 (ip), vehicle: Klucel (hydroxypropylcellulose) (HPC) 118 % of control | endpoint: median survival time, dose: 50.0 mg/kg/injection, schedule: Q01DX009 (ip), vehicle: Klucel (hydroxypropylcellulose) (HPC) 112 % of control | endpoint: median survival time, dose: 60.0 mg/kg/injection, schedule: Q01DX009 (ip), vehicle: Klucel (hydroxypropylcellulose) (HPC) 109 % of control | endpoint: median survival time, dose: 100.0 mg/kg/injection, schedule: Q01DX009 (ip), vehicle: Klucel (hydroxypropylcellulose) (HPC) 113 % of control and 100 % of control | endpoint: median survival time, dose: 166.7 mg/kg/injection, schedule: Q01DX009 (ip), vehicle: Klucel (hydroxypropylcellulose) (HPC) 116 % of control | endpoint: median survival time, dose: 277.8 mg/kg/injection, schedule: Q01DX009 (ip), vehicle: Klucel (hydroxypropylcellulose) (HPC) 120 % of control | endpoint: median survival time, dose: 400.0 mg/kg/injection, schedule: Q01DX009 (ip), vehicle: Klucel (hydroxypropylcellulose) (HPC) 111 % of control

Cc1cn(C2CC3OP(=O)(N(C)C)OCC3O2)c(=O)[nH]c1=O (stereo not given)
inactive: endpoint: mean survival time, dose: 12.5 mg/kg/injection, schedule: Q01DX005 (ip), vehicle: water 105 % of control | endpoint: mean survival time, dose: 25.0 mg/kg/injection, schedule: Q01DX005 (ip), vehicle: water 100 % of control | endpoint: mean survival time, dose: 50.0 mg/kg/injection, schedule: Q01DX005 (ip), vehicle: water 109 % of control | endpoint: mean survival time, dose: 100.0 mg/kg/injection, schedule: Q01DX005 (ip), vehicle: water 97 % of control | endpoint: mean survival time, dose: 200.0 mg/kg/injection, schedule: Q01DX005 (ip), vehicle: water 103 % of control

Nc1ccc([N+](=O)[O-])c(S(=O)(=O)O)c1
inactive: [1] 95 % of control | [2] 95 % of control | [3] 89 % of control

CCOC(=O)CN(CC(=O)OCC)c1ccc(C(C)=O)cc1
inactive: [4] 105 % of control | [5] 94 % of control

CCC(O)C[As](=O)(O)c1cccc(Cl)c1 (stereo not given)
inactive: endpoint: mean survival time, dose: 0.39 mg/kg/injection, schedule: Q01DX009 (ip), vehicle: saline 95 % of control | endpoint: mean survival time, dose: 0.78 mg/kg/injection, schedule: Q01DX009 (ip), vehicle: saline 97 % of control | endpoint: mean survival time, dose: 1.56 mg/kg/injection, schedule: Q01DX009 (ip), vehicle: saline 103 % of control | endpoint: mean survival time, dose: 3.13 mg/kg/injection, schedule: Q01DX009 (ip), vehicle: saline 114 % of control

c1cnc2c(c1)CCCC2
inactive: endpoint: mean survival time, dose: 12.5 mg/kg/injection, schedule: Q01DX009 (ip), vehicle: saline with Tween-80 95 % of control | endpoint: mean survival time, dose: 25.0 mg/kg/injection, schedule: Q01DX009 (ip), vehicle: saline with Tween-80 91 % of control | [6] 87 % of control

CCCCn1c(=O)cc(C(=O)O)c2ccccc21
inactive: [7] 93 % of control | [8] 97 % of control | [9] 89 % of control

COc1ccc(NC(=O)C2C3C=CC(C3)C2C(=O)O)cc1 (stereo not given)
inactive: [1] 98 % of control | [2] 98 % of control

C=C(Br)CNC(=O)OCCCC
inactive: [6] 88 % of control

Cc1ccc2scc3c4ccccc4nc-3c2c1
inactive: endpoint: mean survival time, dose: 100.0 mg/kg/injection, schedule: Q04DX003 (ip), vehicle: acetone 97 % of control

CCCCCCC[CH2][Sn]1([CH2]CCCCCCC)[O]CC2OC(n3cc(C)c(=O)[nH]c3=O)CC2[O]1 (stereo not given)
inactive: endpoint: mean survival time, dose: 12.5 mg/kg/injection, schedule: Q01DX005 (ip), vehicle: other 94 % of control | endpoint: mean survival time, dose: 25.0 mg/kg/injection, schedule: Q01DX005 (ip), vehicle: other 100 % of control | endpoint: mean survival time, dose: 50.0 mg/kg/injection, schedule: Q01DX005 (ip), vehicle: other 114 % of control

O=S1CCCCO1 (stereo not given)
inactive: endpoint: mean survival time, dose: 75.0 mg/kg/injection, schedule: Q04DX003 (ip), vehicle: saline 95 % of control | endpoint: mean survival time, dose: 150.0 mg/kg/injection, schedule: Q04DX003 (ip), vehicle: saline 101 % of control

CCCC1(CCC)NC(=O)NC1=O
inactive: endpoint: mean survival time, dose: 100.0 mg/kg/injection, schedule: Q04DX003 (ip), vehicle: other 102 % of control | endpoint: mean survival time, dose: 200.0 mg/kg/injection, schedule: Q04DX003 (ip), vehicle: other 102 % of control

Cc1c(Cl)cccc1NS(=O)(=O)c1ccccc1
inactive: [7] 108 % of control | [1] 92 % of control | [8] 103 % of control | [2] 99 % of control | [9] 103 % of control | [3] 99 % of control

COc1ccc(Nc2ccc(C(=C3C=CC(=[N+](C)CCC#N)C=C3)c3ccc(N(C)CCC#N)cc3)cc2)cc1
inactive: endpoint: mean survival time, dose: 100.0 mg/kg/injection, schedule: Q04DX002 (ip), vehicle: saline with Tween-80 90 % of control

Cc1c(C)c2ccccc2[nH]c1=O
inactive: [1] 99 % of control | [2] 96 % of control | [3] 100 % of control

Clc1c(Cl)c(CBr)c(Cl)c(-c2c(Cl)c(Cl)c(Cl)c(CBr)c2Cl)c1Cl
inactive: [1] 93 % of control | [2] 107 % of control | [3] 104 % of control

CCOC(=O)c1ccc(NC(=S)NC(=O)c2ccc(Cl)cc2Cl)cc1
inactive: [1] 100 % of control | [2] 91 % of control | [3] 91 % of control

CC12CCC(=O)C=C1CCC1C2C(=O)CC2(C)C1CCC2(O)C(=O)Cn1cc(F)c(=O)[nH]c1=O (stereo not given)
inactive: endpoint: mean survival time, dose: 12.5 mg/kg/injection, schedule: Q04DX003 (ip), vehicle: Klucel (hydroxypropylcellulose) (HPC) 100 % of control | endpoint: mean survival time, dose: 25.0 mg/kg/injection, schedule: Q04DX003 (ip), vehicle: Klucel (hydroxypropylcellulose) (HPC) 103 % of control | endpoint: mean survival time, dose: 50.0 mg/kg/injection, schedule: Q04DX003 (ip), vehicle: Klucel (hydroxypropylcellulose) (HPC) 100 % of control | endpoint: mean survival time, dose: 100.0 mg/kg/injection, schedule: Q04DX003 (ip), vehicle: Klucel (hydroxypropylcellulose) (HPC) 96 % of control | endpoint: mean survival time, dose: 200.0 mg/kg/injection, schedule: Q04DX003 (ip), vehicle: Klucel (hydroxypropylcellulose) (HPC) 94 % of control

O=c1[nH]cc(Cc2cccc(OCc3ccccc3)c2)c(=O)[nH]1
inactive: endpoint: mean survival time, dose: 75.0 mg/kg/injection, schedule: Q01DX001 (ip), vehicle: saline with Tween-80 97 % of control | endpoint: mean survival time, dose: 150.0 mg/kg/injection, schedule: Q01DX001 (ip), vehicle: saline with Tween-80 98 % of control | endpoint: mean survival time, dose: 300.0 mg/kg/injection, schedule: Q01DX001 (ip), vehicle: saline with Tween-80 89 % of control

N#CC(=N)N1CCN(C(=N)C#N)CC1
inactive: endpoint: mean survival time, dose: 25.0 mg/kg/injection, schedule: Q04DX002 (ip), vehicle: saline with Tween-80 93 % of control | endpoint: mean survival time, dose: 50.0 mg/kg/injection, schedule: Q04DX002 (ip), vehicle: saline with Tween-80 86 % of control | endpoint: mean survival time, dose: 100.0 mg/kg/injection, schedule: Q01DX001 (ip), vehicle: saline 97 % of control

CC(=O)Nc1ccc(C=O)cc1
inactive: endpoint: mean survival time, dose: 50.0 mg/kg/injection, schedule: Q04DX003 (ip), vehicle: saline 102 % of control | [4] 100 % of control | [5] 100 % of control

C(=C\c1ccccc1)/C[P+](c1ccccc1)(c1ccccc1)c1ccccc1
inactive: endpoint: mean survival time, dose: 5.0 mg/kg/injection, schedule: Q01DX009 (ip), vehicle: saline with Tween-80 98 % of control | endpoint: mean survival time, dose: 5.0 mg/kg/injection, schedule: Q04DX003 (ip), vehicle: saline with Tween-80 100 % of control | endpoint: mean survival time, dose: 10.0 mg/kg/injection, schedule: Q01DX009 (ip), vehicle: saline with Tween-80 100 % of control | endpoint: mean survival time, dose: 10.0 mg/kg/injection, schedule: Q04DX003 (ip), vehicle: saline with Tween-80 100 % of control | endpoint: mean survival time, dose: 20.0 mg/kg/injection, schedule: Q01DX009 (ip), vehicle: saline with Tween-80 94 % of control | endpoint: mean survival time, dose: 20.0 mg/kg/injection, schedule: Q04DX003 (ip), vehicle: saline with Tween-80 97 % of control

CC(/C=N/N(C)C)=N\N(C)C
inactive: endpoint: mean survival time, dose: 50.0 mg/kg/injection, schedule: Q01DX009 (ip), vehicle: saline 108 % of control | endpoint: mean survival time, dose: 100.0 mg/kg/injection, schedule: Q01DX009 (ip), vehicle: saline 96 % of control

COc1ccc2nc(-c3ccc(F)cc3)cc(C(=O)O)c2c1
inactive: [1] 97 % of control | [2] 101 % of control | [3] 101 % of control
